For series [1], the system named is H9. Nature of the series: Evaluated for the anti-HIV activity against HIV-1 replication in H9 lymphocyte cells. The series is classed as functional, cell-based. The following applies: Homo sapiens.
Series [2] is described as follows: Therapeutic Index (IC50/EC50) of the compound.
Series [3] has as its system H9. Nature of the series: Evaluated for the anti-HIV activity against HIV-1 replication in mock-infected H9 cells. It is filed as functional, cell-based. The following applies: Homo sapiens.
The nature of series [4]: Therapeutic Index (IC50/EC50) of the compound; Toxic at all concentrations.
Series [5] relates to H9. Nature of the series: Evaluated for the anti-HIV activity against HIV-1 replication in H9 lymphocyte cells; Toxic at all concentrations. The series is classed as functional, cell-based. The following applies: Homo sapiens.

In the series on H9 [1], `C=C(C)[C@@H]1CC[C@]2(COC(=O)C(C)(C)CC(=O)O)CC[C@]3(C)[C@H](CC[C@@H]4[C@@]5(C)CC[C@H](OC(=O)CC(C)(C)C(=O)O)C(C)(C)[C@@H]5CC[C@]43C)[C@@H]12` returned a half-maximal effective concentration (EC50) of 0.00087 µM. For the same compound, the selectivity ratio in series [2] stood at 42400. This compound had an IC50 with H9 [3] of 36.9 µM.

In the series on H9 [1], `C=C(C)[C@@H]1CC[C@]2(COC(=O)CC(C)(C)C(=O)O)CC[C@]3(C)[C@H](CC[C@@H]4[C@@]5(C)CC[C@H](O)C(C)(C)[C@@H]5CC[C@]43C)[C@@H]12` gave a 50% effective concentration (EC50) below 0.18 µM. Further, the selectivity ratio in series [2] was above 207. The compound also gave an IC50 in the series with H9 [3] of 37.4 µM.

As for `C=C(C)[C@@H]1CC[C@]2(COC(=O)C(C)(C)CC(=O)O)CC[C@]3(C)[C@H](CC[C@@H]4[C@@]5(C)CC[C@H](O)C(C)(C)[C@@H]5CC[C@]43C)[C@@H]12`, the EC50 in the series on H9 [1] amounted to 0.18 µM. For the same compound, the selectivity ratio in series [2] worked out at 159. The same compound showed an IC50 in the series on H9 [3] of 28.6 µM.

As to `C=C(C)[C@@H]1CC[C@]2(C(=O)O)CC[C@]3(C)[C@H](CC[C@@H]4[C@@]5(C)CC[C@H](OC(=O)CC(C)(C)C(=O)O)C(C)(C)[C@@H]5CC[C@]43C)[C@@H]12` [BEVIRIMAT], in the series with H9 [1], the 50% effective concentration (EC50) is below 0.00035 µM. Also, the selectivity ratio in series [2] was above 20000.

For the compound `C=C(C)[C@@H]1CC[C@]2(C(=O)O)CC[C@]3(C)[C@H](CC[C@@H]4[C@@]5(C)CC[C@H](OC(=O)COCC(=O)O)C(C)(C)[C@@H]5CC[C@]43C)[C@@H]12`, the selectivity ratio in series [2] was 1170.

In the series on H9 [1], `C=C(C)[C@@H]1CC[C@]2(COC(=O)CC(C)(C)C(=O)O)CC[C@]3(C)[C@H](CC[C@@H]4[C@@]5(C)CC[C@H](OC(=O)CC(C)(C)C(=O)O)C(C)(C)[C@@H]5CC[C@]43C)[C@@H]12` yielded a half-maximal effective concentration (EC50) of 0.02 µM. Also, the selectivity ratio in series [2] stood at 1680. In the series with H9 [3], this compound displayed a concentration for half-maximal inhibition (IC50) of 33.6 µM.

As for `C=C(C)[C@@H]1CC[C@]2(COC(=O)C(C)(C)CC(=O)O)CC[C@]3(C)[C@H](CC[C@@H]4[C@@]5(C)CC[C@H](OC(=O)C(C)(C)CC(=O)O)C(C)(C)[C@@H]5CC[C@]43C)[C@@H]12`, the Ratio entry in series [4] is “Toxic at all concentrations”. Further, the Activity result with H9 [5] was “Toxic at all concentrations”.

For the compound `C=C(C)[C@@H]1CC[C@]2(COC(=O)CC(C)(C)C(=O)O)CC[C@]3(C)[C@H](CC[C@@H]4[C@@]5(C)CC[C@H](OC(=O)C(C)(C)CC(=O)O)C(C)(C)[C@@H]5CC[C@]43C)[C@@H]12`, the concentration for a half-maximal effect (EC50) with H9 [1] was 0.4 µM. Also, the selectivity ratio in series [2] is 96.5. In addition, half-maximal inhibition in the series on H9 [3] (IC50) was put at 38.6 µM.

Consider `C=C(C)[C@@H]1CC[C@]2(COC(=O)CC(C)(C)CC(=O)O)CC[C@]3(C)[C@H](CC[C@@H]4[C@@]5(C)CC[C@H](OC(=O)CC(C)(C)CC(=O)O)C(C)(C)[C@@H]5CC[C@]43C)[C@@H]12`, for which the selectivity ratio in series [2] was 21500.

For the origin of these results see ChEMBL document CHEMBL1134740, “3,28-Di-O-(dimethylsuccinyl)-betulin isomers as anti-HIV agents” (Bioorg Med Chem Lett, 2001).
